Data published in PubChem BioAssay AID179 (DTP/NCI, 2004).
Activity calls are given as the source filed them.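 How the source made its calls: active means compounds giving half or more protection of infected cells from virus-caused growth loss, again on retest; inactive means the rest.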

System: CEM cells HIV-1 protection, formazan growth assay
Assay: NCI AIDS Antiviral Assay
Conditions: for IC50: measured here: growth of uninfected CEM cells
Protocol: The ability of compounds to protect human CEM cells from HIV-1 infection is measured as a screen for new compounds capable of inhibiting the HIV virus. Five concentrations of drug were tested on uninfected and infected cells and cell growth was measured using a soluble formazan assay. […] Compounds that provided at least 50% protection were retested. Compounds that provided at least 50% protection on retest were listed as moderately active. Compounds that reproducibly provided 100% protection were listed as confirmed active. […] Note that the inability to provide protection could be due to toxicity.

Structure (SMILES) | EC50 | IC50 | outcome
O=c1ccc(=O)c2c1c1[nH]c3ccccc3c1c1c(=O)c3ccccc3c(=O)c21 | > 200 µM | 18.6 µM | 
C=C(c1nc2ccc(Cl)cc2[nH]c1=O)C(O)c1ccc(C(O)C(=O)c2nc3ccc(Cl)cc3[nH]c2=O)cc1 (stereo not drawn) | > 162 µM | 12 µM | 
CC(=O)N1CC(=O)N2C(=O)/C(=C/c3ccc(Cl)cc3)N=C12 | > 63.1 µM | 6.92 µM | 
Cc1ccc2c(ccc(/C=C/c3ccc(O)c4ncccc34)[n+]2C)c1 | > 28.8 µM | 5.89 µM | 
CN1B(c2ccccc2)N(C)C(=O)N(C)C1=O | > 200 µM | > 200 µM | 
OC1CSc2nc3ccccc3n2C1 (stereo not drawn) | > 200 µM | > 200 µM | 
CC(C)CCC[C@@H](C)[C@H]1CC[C@H]2C3=C[C@H](OS(=O)(=O)O)[C@@]4(O)C[C@@H](O)CC[C@]4(C)[C@@]3(O)CC[C@]12C | > 200 µM | 97.7 µM | 
N#CC(C#N)=C1CCCS(=O)(=O)c2ccccc21 | > 200 µM | > 200 µM | 
Cn1nnnc1SCC1=C(C(=O)O)N2C(=O)C(NC(=O)C(OC=O)c3ccccc3)C2SC1 (stereo not drawn) | > 200 µM | > 200 µM | 
OCCN(CCO)c1ccc2ccc(N(CCO)CCO)nc2n1 | > 200 µM | 25.7 µM | 
O=C1CCC2(CC1CC(Sc1ccccc1)Sc1ccccc1)OCCO2 (stereo not drawn) | > 200 µM | 41.7 µM | 
Cc1nc2ccccc2c(=O)n1NC(=O)c1ccccc1O | > 200 µM | 38 µM | 
COc1ccc(/C=N/Nc2nc(-c3cc4oc(=O)n(C)c4cc3Cl)cs2)cc1OC | > 11.7 µM | > 11.7 µM | 
O=C(O)c1ccc(C2=Cc3cc(Cl)ccc3OC2)cc1 | > 66.1 µM | > 66.1 µM | 
c1ccc(Cc2nc(Cc3n[nH]c(Cc4ccccc4)n3)n[nH]2)cc1 | > 200 µM | > 200 µM | 
CCCN1CN(C(C(=O)N[C@@H]2C(=O)N3C(C(=O)O)=C(C)CSC23)c2ccccc2)CSC1=S (stereo partly drawn) | > 355 µM | 204 µM | 
CCCCN1C(=O)C(NC(C)=O)C1COC(C)(C)C (stereo not drawn) | > 479 µM | > 479 µM | 
CCOC(=O)NC(Nc1ccc(F)cc1)(C(=O)OCC)C(F)(F)F (stereo not drawn) |  |  | inactive
CC(C)CCCC(C)[C@H]1CCC2C3C/C(=C\C#N)[C@H]4CCCC[C@]4(C)C3CC[C@@]21C (stereo partly drawn) | > 100 µM | > 100 µM | 
C/C(CC1(O)C(=O)Nc2ccccc21)=N\O (stereo not drawn) | > 200 µM | > 200 µM | 

Structure (SMILES) | EC50 | IC50 | outcome
NS(=O)(=O)c1ccc(NC(=S)/N=C/C2=C(O)c3ccccc3C2=O)cc1 | > 200 µM | 52.5 µM | 
C=C1c2cc3c(cc2CC12Cc1cc4c(cc1C2=O)CCC4)CCC3 (stereo not drawn) | > 200 µM | > 200 µM | 
O=C(Nc1nc(C23CC4CC(CC(C4)C2)C3)cs1)c1cc2ccccc2oc1=O | > 200 µM | > 200 µM | 
COc1cccc(/C=C2\SC(=S)N(/C=C(/C#N)C(N)=O)C2=O)c1O | 100 µM | 112 µM | 
O=C1C2C3C=C4c5ccccc5N(c5ccccc5)C4(C2C(=O)N1c1ccc(Cl)cc1)[C@H]1C(=O)N(c2ccc(Cl)cc2)C(=O)[C@@H]31 (stereo partly drawn) | > 3.16 µM | > 3.16 µM | 
O=C(O)c1nc2cc(C(F)(F)F)ccc2nc1Nc1ccc(F)cc1 | > 200 µM | 7.76 µM | 
CC(=O)OC1CC2C(C)(C)C(=O)C=C[C@]2(C)C2CCC3(C)C(c4ccoc4)OC(=O)[C@H]4O[C@]43[C@]12C (stereo partly drawn) |  |  | inactive
CC(=O)OCC(=O)[C@@]1(O)CC[C@H]2[C@@H]3C[C@H](C)C4=CC(=O)C=C[C@]4(C)[C@@]3(Br)[C@@H](O)C[C@@]21C |  |  | inactive
CO/N=C/c1cc(NC(=S)c2ccoc2C)ccc1Cl | 0.0575 µM | 29.5 µM | 
CC(=O)Oc1ccc(/C=C/C(=O)NCCOC(=O)/C=C/c2ccc(OC(C)=O)c(OC(C)=O)c2)cc1OC(C)=O | > 100 µM | 15.1 µM | 
C[N+](C)([O-])CCNc1c2ccccc2nc2cccc([N+](=O)[O-])c12 | > 20 µM | 0.355 µM | 
C=C(C)C(=O)OC1C[C@H](COC(C)=O)C2CC=C(CO)C2C2OC(=O)C(=C)[C@H]12 (stereo partly drawn) | > 200 µM | 9.12 µM | 
Cn1c(/C=C(\O)c2ccc(Cl)cc2)nc2ccccc21 | > 91.2 µM | > 91.2 µM | 
CC1=C(C#N)C2(N)OC1(C)C1C(=O)C=CC(=O)C12 (stereo not drawn) | > 200 µM | 23.4 µM | 
C(=N\NC1=NCCN1)/c1ccc(-c2cn3cc(/C=N/NC4=NCCN4)ccc3n2)cc1 | > 53.7 µM | 3.72 µM | 
Cc1c([N+](=O)[O-])c(=O)oc2ccc3c(=O)ccoc3c12 | > 50.1 µM | 8.71 µM | 
CC(C)CCC[C@@H](C)C1CCC2[C@@H]3CCC4CC(CCC=C(c5cc(Cl)c(OC(=O)c6ccccc6)c(C(=O)O)c5)c5cc(Cl)c(OC(=O)c6ccccc6)c(C(=O)O)c5)CC[C@]4(C)C3CC[C@@]21C (stereo partly drawn) | > 200 µM | 141 µM | 
COc1cc(-c2oc3cc(OC)c(OC)c(OC)c3c(=O)c2OC)cc(OC)c1OC | > 200 µM | 26.3 µM | 
CC(C)(C)OC(=O)CCCCCNC(=O)CCCCCNC(=O)CCC(CN(CC(=O)OCc1ccccc1)CC(=O)OCc1ccccc1)N(CC(=O)OCc1ccccc1)CC(=O)OCc1ccccc1 (stereo not drawn) |  |  | inactive
CCC(C)C(CC)C(N)=O (stereo not drawn) | > 200 µM | > 200 µM | 

Structure (SMILES) | EC50 | IC50 | outcome
CC(=O)OC1C(COC(N)=O)OC(n2c(-c3ccc(C)cc3)cc(-c3ccccc3)c(C#N)c2=O)C(OC(C)=O)C1OC(C)=O (stereo not drawn) | > 11.5 µM | > 11.5 µM | 
COC1(OC)CCC2(C)OC(c3ccccc3)C1O2 (stereo not drawn) |  |  | inactive
O=c1c2cccnc2ncn1CCN1CCCCC1 |  |  | inactive
O=C1OC(c2ccccc2)=N/C1=C\c1ccccc1O | > 26.9 µM | > 26.9 µM | 
COc1ccc(N2C(=O)/C(=C\c3cccc(Oc4ccccc4)c3)SC2c2ccccc2)cc1 (stereo not drawn) | > 200 µM | 8.51 µM | 
CC(C)=CCC/C(C)=C/CC/C(C)=C/Cc1c(O)c2ccccc2oc1=O | > 186 µM | 95.5 µM | 
CC(C)(C)C1(C#N)C(=O)N(c2ccc(Cl)cc2)C12c1ccccc1-c1ccccc12 (stereo not drawn) | > 9.12 µM | > 9.12 µM | 
COc1cc(CC2C(=O)NC(=O)NC2=O)ccc1OCc1ccccc1 |  |  | inactive
COc1cccc(CN2CCCN(/N=C/c3c4c(O)c5c(O)c(C)c6c(c5c3O)C(=O)C(C)(O/C=C/C(OC)C(C)C(OC(C)=O)C(C)C(O)C(C)C(O)C(C)/C=C/C=C(/C)C(=O)N4)O6)CC2)c1 (stereo not drawn) | > 200 µM | 5.01 µM | 
O=C(c1ccccc1)N(CCCCNC(=O)C(F)(F)F)CCCNC(=O)C(F)(F)F | > 200 µM | > 200 µM | 
CC1=C(/C=C/C(C)=C/C2CC(N(C)C)=CC(=O)O2)C(C)(C)CCC1 (stereo not drawn) |  |  | inactive
O=C1CCCC(=O)C1=C(O)CCCCCCCCCCc1ccccc1 | > 38 µM | > 38 µM | 
CC(C)(C)OC[C@H](O)CC#N | > 200 µM | > 200 µM | 
COc1ccc(N2CCCSC2=S)cc1 | > 200 µM | > 200 µM | 
O=C(O)/C(Cl)=C(\Cl)C(=O)Nc1ccc(Cl)cc1Cl |  |  | inactive
CCCCC1C(=O)N2c3ccccc3-c3ccccc3N2C1=O |  |  | inactive
CCCNC(=O)Sc1ccccc1C(=O)N[C@@H](C)C(N)=O | > 4.17 µM | 1.41 µM | 
[N-]=[N+]=NC1CC(n2cc(Cc3ccccc3)c(=O)[nH]c2=O)OC1COC(=O)CCC(=O)O (stereo not drawn) | > 562 µM | > 562 µM | 
CCOC(=O)C1=C(C)N(C2OC(COC(=O)c3ccccc3)C(OC(=O)c3ccccc3)C2OC(=O)c2ccccc2)C(=S)NC1c1ccccc1 (stereo not drawn) | > 50.1 µM | > 50.1 µM | 
